The subject of one data set is Kaninchen. Description: Influence on infarct size in an ischaemia/reperfusion model (60 min coronary ligation, 30 min reperfusion). Conditions: i.v. 10 min before occlusion. Format: in vivo. As to the method: 1. Beeinflussung der Infarktgröße an einem Ischämie/Reperfusionsmodell
Kaninchen (Russen beiderlei Geschlechts, Körpergewicht 2-2,5 kg) werden mit einem Bolus (40-60 mg/kg i.p.) und nachfolgender Dauerinfusion (10 |g/kg/h) Pentobarbital narkotisiert. Die Körpertemperatur wird bei 38°C gehalten. Nach endotrachealer Intubation werden die Tiere druckkonstant mit einer Mischung aus 50 % O₂ und 50 % N₂ beatmet. Die Kontrolle der Blutgase und des Blut pH erfolgt mit einem Blutgasanalyzer (ABL-2, Radiometer). Zur Messung des linksventrikulären Druckes wurde ein Druckwandler über die A-carotis in die linke Herzkammer geschoben. Der Aortendruck wird über einen via A. femoralis eingeführten Katheter erfaßt. Nach Eröffnung des Thorax im 5. linken Interkostalraum wird die linke absteigende Koronararterie für 60 Minuten ligiert und danach die Koronararterie wieder eröffnet. Nach 30minütiger Reperfusion wird die Arterie an derselben Stelle wieder verschlossen und das normal perfundierte Myokard mit Patentblau (in den linken Vorhof injiziert) angefärbt. Das Herz wird danach in drei Scheiben geschnitten und das bisher ungefärbte, vorher ischämische Gewebe, wird in einem Puffer mit Triphenyltetrazolium angefärbt. Überlebende Herzmuskelreale färben sich ziegelrot, während totes Gewebe bleich erscheint. […]

The next data set deals with Hunde. Description: Effect on collateral-dependent residual myocardial perfusion after repeated complete occlusion of the circumflex branch of the left coronary artery (radioactive microspheres). In kind it is in vivo. Conditions: relative to third occlusion. As to the method: 2. Wirkung auf die kollateralabhängige Restperfusion des Myokards nach wiederholter vollständiger Okklusion des umschlingenden Astes der linken Koronararterie
Hunde (mischrassig, beiderlei Geschlechts, 20-30 kg Körpergewicht) werden mit Morphin (1 mg/kg s.c.) prämediziert und mit Pentobarbital (i.v. 20 mg/kg Bolus gefolgt von einer Dauerinfusion von 8 mg/kg) narkotisiert. Die Körpertemperatur wird mit einem Heizkissen bei 38°C gehalten. Nach endotrachealer Intubation werden die Tiere mit einem Gemisch von 25 % O₂ und 75 % N₂O beatmet. Der linksventrikuläre Druck wird mit einem Mikrodruckwandler gemessen, während der Aortendruck über einen via A. femoralis vorgeschobenen Katheter erfaßt wird. Nach Thoraxeröffnung im linken 5. Interkostalraum wird der Ramus circumflexus der linken Koronararterie freipärpariert und der Meßkopf eines elektromagnetischen Flowmeters darumgelegt. Zur Injektion von radioaktiven Mikrosphären (regionale Perfusionsmessung) wird der linke Vorhof kanüliert. Die Referenzprobe wird über die linke A. femoralis 2 Minuten lang bei einem Fluß von 6 ml/Minute gezogen. Die Registrierung der hämodynamischen Daten erfolgt auf einem IFD Polygraphen.
Nach einer 30minütigen Äquilibrierungsphase wird der Ramus circumflexus 6 mal im Abstand von jeweils 30 Minuten für 4 Minuten verschlossen. Dabei wird während der 4. Minute eine regionale Perfusionsbestimmung durchgeführt. Die Perfusion des Versorgungsbereiches des Ramus circumflexus ist abhängig von koronaren Kollateralgefäßen. Für die Beurteilung der Kollateralperfusion werden die besonders ischämiegefährdeten subendocardialen Herzmuskelschichten herangezogen. Als Bezugswert vor Substanzgabe dient der jeweilige Flußwert der dritten Okklusion.

Data set [1] is described as follows: Acute toxicity (LD50), mouse. Conditions: in vivo, Maus.
A short description of data set [2]: Acute toxicity (LD50), rat. As to conditions: in vivo, iv, Ratte, read-out: LD₅₀ i.v.
[3] abbreviates: po, read-out: LD₅₀ p.o. (converted).

For the molecule `CC(C)NCC(O)COc1ccc(CC(N)=O)cc1` (stereo not shown) [Atenolol, reference compound], in the data set with Kaninchen (Dosis 0,3 mg/kg), the “% des ischämischen Myokards infarziert” value amounted to 63%.
Turning to `Cc1nc2ccc(C3=NNC(=O)CC3C)cc2[nH]1` (stereo not shown) [C, 2-Methyl-5-(5-methyl-3-oxo-4,5-dihydro-2H-6-pyridazinyl)-benzimidazol], the “% Änderung des Kollateralflusses pro Herzschlag im subendocardialen ischämischen Myocard” value in the data set on Hunde (Dosis i.v. 10 µg/kg) is “+101%”; in the data set on Hunde (Dosis i.v. 30 µg/kg) it was “+178%”.
`COc1ccc(CCN2CCCC(CN3CCc4cc(OC)c(OC)cc4CC3=O)C2)cc1OC` (stereo not shown) [D, 3-[(N-(2-(3,4-Dimethoxyphenyl)-ethyl)-piperidin-3-yl)-methyl]-7,8-dimethoxy-1,3,4,5-tetrahydro-2H-3-benzazepin-2-on]: the LD50 in data set [1] (iv, read-out: LD₅₀ i.v.) is 50 mg/kg; in data set [1] (setting [3]), 720 mg/kg.
`COc1ccc(-c2nc3ccc(C4=NNC(=O)CC4C)cc3[nH]2)cc1` (stereo not shown) [Verbindung A, 2-(4-Methoxyphenyl)-5-(5-methyl-3-oxo-4,5-dihydro-2H-6-pyridazinyl)-benzimidazol]: the LD50 was 72 mg/kg in data set [2] and 600 mg/kg in data set [1] (setting [3]). Besides, in the data set on Hunde (Dosis i.v. 30 µg/kg), the “% Änderung des Kollateralflusses pro Herzschlag im subendocardialen ischämischen Myocard” value is reported as “+100%”. Also, in the data set on Kaninchen (Dosis 0,5 mg/kg), the “% des ischämischen Myokards infarziert” value is on record as 34%.
`CC1CC(=O)NN=C1c1ccc2nc(-c3ccc(O)cc3)[nH]c2c1` (stereo not shown) [Verbindung B, 2-(4-Hydroxyphenyl)-5-(5-methyl-3-oxo-4,5-dihydro-2H-6-pyridazinyl)-benzimidazol]: the LD50 in data set [2] is greater than 100 mg/kg. Moreover, the “% Änderung des Kollateralflusses pro Herzschlag im subendocardialen ischämischen Myocard” value in the data set with Hunde (Dosis i.v. 95 µg/kg) is given as “+182%”.
In the case of `COc1ccc(CCN(C)CCCN2CCc3cc(OC)c(OC)cc3CC2=O)cc1OC` [Verbindung E, 1-(7,8-Dimethoxy-1,3,4,5-tetrahydro-2H-3-benzazepin-2-on-3-yl)-3-[N-methyl-N-(2-(3,4-dimethoxyphenyl)-ethyl)-amino]propan], the LD50 was 89 mg/kg in data set [1] (iv, read-out: LD₅₀ i.v.) and 1350 mg/kg in data set [1] (setting [3]).
